Entries after “also recorded” stand apart in the source; their conditions may differ.

Series [1] concerns C. elegans. As to the kind of experiment: C. elegans lifespan with 3HAA supplementation. The series is classed as in vivo, Caenorhabditis elegans. To be noted: 3HAA supplementation of worms. As to the method: 3HAA mediates lifespan extension by haao-1 knockdown. 3HAA is red in color. Worms with reduced HAAO turned visibly red with age. Using liquid chromatography-tandem mass spectrometry (LC-MS/MS), it was confirmed that these worms had elevated 3HAA (FIG. 3B). Next, it was assessed whether 3HAA may mediate the benefits of reducing haao-1. Indeed, worms supplemented with 3HAA were long-lived (FIG. 3C), mimicking haao-1 knockdown (FIG. 3D).

For series [2], the system named is C. elegans expressing human Aβ1-42 in body wall muscle. As to the kind of experiment: Paralysis in C. elegans expressing human Aβ1-42 in body wall muscle (Alzheimer's disease model). The class given is in vivo, Caenorhabditis elegans. To be noted: 3HAA supplementation; transgenic Aβ1-42 in body wall muscle. As to the method:
It was then tested whether 3HAA would prevent Aβ toxicity in vivo. In C. elegans, transgenic expression of the aggregate-prone 42 amino acid form of Aβ (Aβ1-42) in body wall muscle induces paralysis (Link C D. Proc Natl Acad Sci USA 1995, 92:9368-72). […] Next and as described below, 3HAA will be tested as a treatment for amyloid pathology in a cellular context more relevant to AD.

Series [3] relates to C. elegans expressing a 35-unit polyglutamine repeat peptide in body wall muscle. As to the kind of experiment: Paralysis in C. elegans expressing a 35-unit polyglutamine repeat peptide in body wall muscle (Huntington's disease model). The series is classed as in vivo, Caenorhabditis elegans. To be noted: 3HAA supplementation; aggregate-prone polyglutamine repeat in body wall muscle.

Series [4] is described as follows: Direct interaction of 3HAA with H2O2 in vitro. The settings on record: addition of 3HAA in the absence of other media components. An excerpt: (§1) Superoxide dismutases degrade cellular superoxide to oxygen and H2O2.
Series [5] deals with C. elegans. As to the kind of experiment: Endogenous H2O2 produced by C. elegans in vivo. To be noted: 3HAA supplementation. Details: species or system Caenorhabditis elegans.
Text: as §1

The target of series [6] is Aβ (Homo sapiens, UniProt P05067). To be noted: buffered media; direct binding to Aβ; cited from earlier work.
Sequence of Aβ (P05067 672-713 limits assumed): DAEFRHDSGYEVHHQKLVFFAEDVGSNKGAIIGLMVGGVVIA
Series [7] has as its system cultured human blood cells. To be noted: cited from earlier work.
Series [8] has as its system brains of rats. To be noted: cited from earlier work.
Series [9] has as its system hemeoxygenase-1 (HO-1). The settings on record: human cell culture; cited from earlier work.
For series [10], the system named is tau. The settings on record: cultured human neurons; cited from earlier work.
Series [11] deals with α-synuclein (Homo sapiens, UniProt P37840). The settings on record: QA self-assembled fibrils; cited from earlier work.
Series [12] deals with brain tissue. The settings on record: cited from earlier work.

Take `Nc1c(O)cccc1C(=O)O` [3HAA, 3-hydroxyanthranilic acid]: the lifespan entry in series [1] is “long-lived; also recorded: extends lifespan; also recorded: robustly extended lifespan”. Also, the “onset of paralysis (Aβ toxicity)” value in series [2] is on record as “delayed onset of paralysis; also recorded: delays paralysis; also recorded: delayed Aβ pathology”. Also, the “paralysis (polyglutamine repeat model)” value in series [3] is on record as “delays paralysis”. The “measureable H2O2 in vitro (direct degradation of H2O2)” value in [4] is listed as “reduced measureable H2O2; also recorded: directly breaks down H2O2; also recorded: directly degrades H2O2; also recorded: direct degradation of hydrogen peroxide”. The “endogenous H2O2 produced by C. elegans in vivo” value in series [5] is on record as “limited endogenous H2O2; also recorded: reduces H2O2 produced by C. elegans in vivo”. The “Aβ misfolding/aggregation in vitro” value in series [6] was “prevents Aβ aggregation; also recorded: prevents Aβ misfolding through direct binding; also recorded: preventing misfolding and aggregation”. Also, in [7], the LDL oxidation result is “prevents LDL oxidation”. In [8], the lipid peroxidation entry is “prevents”. For the same compound, the “expression of hemeoxygenase-1 (HO-1)” value in series [9] is reported as “induces expression of the antioxidant hemeoxygenase-1 (HO-1)”.
As for `O=C(O)c1cccnc1C(=O)O` [QA, quinolinic acid], in series [10], the tau phosphorylation result is given as “drives tau phosphorylation”. In addition, the “seeding of α-synuclein aggregation” value in series [11] was “seed and accelerate aggregation of α-synuclein; also recorded: seeding aggregation of α-synuclein”. In [12], the “in vivo lipid peroxidation in brain tissue” value is “induces in vivo lipid peroxidation in brain tissue”.
